# Target: T1, human CRF receptors (Homo sapiens, UniProt P34998)
# T1 construct: expressed in transfected cells
# T1 sequence (P34998 24-415): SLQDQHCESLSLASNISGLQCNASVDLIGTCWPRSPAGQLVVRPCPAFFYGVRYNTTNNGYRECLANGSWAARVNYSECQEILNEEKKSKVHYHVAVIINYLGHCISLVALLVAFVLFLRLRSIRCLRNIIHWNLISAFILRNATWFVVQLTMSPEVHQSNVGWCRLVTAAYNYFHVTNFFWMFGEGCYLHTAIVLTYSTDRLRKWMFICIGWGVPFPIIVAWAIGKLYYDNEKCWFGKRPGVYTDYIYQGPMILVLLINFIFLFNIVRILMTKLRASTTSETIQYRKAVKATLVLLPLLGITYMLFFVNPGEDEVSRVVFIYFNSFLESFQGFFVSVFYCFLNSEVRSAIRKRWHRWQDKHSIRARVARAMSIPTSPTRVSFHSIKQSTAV
# Test: standard radioligand binding assay: displacement of radiolabeled CRF ligand from the CRF receptor
# Conditions: Table 7 title: Ki ≤ 250 nM; cells stably transfected with human CRF receptors; [125I]tyrosine-ovine CRF ~200 pM; 2 hours at 22° C.
# Text: The effectiveness of a compound as a CRF receptor antagonist may be determined by various assay methods. Suitable CRF antagonists of this invention are capable of inhibiting the specific binding of CRF to its receptor and antagonizing activities associated with CRF. A compound of structures I through VI may be assessed for activity as a CRF antagonist by one or more generally accepted assays for this purpose, including (but not limited to) the assays disclosed by DeSouza et al. (J. Neuroscience 7:88, 1987) and Battaglia et al. (Synapse 1:572, 1987). […] CRF receptor affinity may be determined by binding studies that measure the ability of a compound to inhibit the binding of a radiolabeled CRF (e.g., [^125 I]tyrosine-CFR) to its receptor (e.g. receptors prepared from rat cerebral cortex membranes). The radioligand binding assay described by DeSouza et al. (supra, 1987) provides an assay for determining a compound's affinity for the CRF receptor. Such activity is typically calculated from the IC50 as the concentration of a compound necessary to displace 50% of the radiolabeled ligand from the receptor, and is reported as a "Ki " value calculated by the following equation: [formula] where L=radioligand and KD =affinity of radioligand for receptor (Cheng and Prusoff, Biochem. Pharmacol. 22:3099, 1973).
# Compounds were evaluated for binding activity to the CRF receptor by a standard radioligand binding assay as generally described by DeSouza et al. (J. Neurosci. 7:88-100, 1987). By utilizing various radiolabeled CRF ligands, the assay may be used to evaluate the binding activity of the compounds of the present invention with any CRF receptor subtype. Briefly, the binding assay involves the displacement of a radiolabeled CRF ligand from the CRF receptor.
# More specifically, the binding assay was performed in 1.5 ml Eppendorf tubes using approximately 1×10^6 cells per tube stably transfected with human CRF receptors. Each tube received about 0.1 ml of assay buffer (e.g., Dulbecco's phosphate buffered saline, 10 mM magnesium chloride, 20 μM bacitracin) with or without unlabeled sauvagine, urotensin I or CRF (final concentration, 1 μM) to determine nonspecific binding, 0.1 ml of [^125 ] tyrosine--ovine CRF (final concentration ~200 pM or approximately the KD as determined by Scatchard analysis) and 0.1 ml of a membrane suspension of cells containing the CRF receptor. The mixture was incubated for 2 hours at 22° C. followed by the separation of the bound and free radioligand by centrifugation. Following two washes of the pellets, the tubes were cut just above the pellet and monitored in a gamma counter for radioactivity at approximately 80% efficiency. All radioligand binding data was analyzed using the non-linear least-square curve-fitting program LIGAND of Munson and Rodbard (Anal. Biochem. 107:220, […]).
# Binding activity corresponds to the concentration (nM) of the compound necessary to displace 50% of the radiolabeled ligand from the receptor.
row,Structure (SMILES),Ki [nM]
1,CCCN(c1ncc(C)c(-c2ccc(Cl)cc2)n1)C(C1CC1)C1CC1 [II-7],≤ 250
2,"CCCN(c1nccc(-c2c(Cl)cc(Cl)cc2Cl)n1)C(C1CC1)C1CC1 [II-11, 2-(N-dicyclopropylmethyl-N-propylamino)-4-(2',4',6'-trichlorophenyl)-pyrimidine]",≤ 250
3,"CCCN(c1ncc(C)c(-c2ccc(Br)cc2)n1)C(C1CC1)C1CC1 [II-16, 2-(N-dicyclopropylmethyl-N-propylamino)-4-(4'-bromophenyl)-5-methylpyrimidine]",≤ 250
4,"CCCN(c1nccc(-c2c(OC)cc(OC)cc2OC)n1)C(C1CC1)C1CC1 [II-22, 2-(N-dicyclopropylmethyl-N-propylamino)-4-(2',4',6'-trimethoxyphenyl)pyrimidine]",≤ 250
5,"CCCN(c1nccc(-c2c(OC)cccc2OC)n1)C(C1CC1)C1CC1 [II-23, 2-(N-dicyclopropylmethyl-N-propyl)-4-(2',6'-dimethoxyphenyl)pyrimidine]",≤ 250
6,CCCN(c1nccc(-c2c(C)cc(C)cc2C)n1)C(C1CC1)C1CC1 [II-24],≤ 250

# The next lines start with the values.
row,Ki [nM],Structure (SMILES)
1,≤ 250,CCCN(c1ncc(C)c(-c2c(OC)cc(OC)cc2OC)n1)C(C1CC1)C1CC1 [II-25]
2,≤ 250,CCCN(c1ncc(C)c(-c2ccc(Cl)cc2OC)n1)C(C1CC1)C1CC1 [II-32]
3,≤ 250,CCCN(c1nccc(-c2c(OC)cc(Cl)cc2OC)n1)C(C1CC1)C1CC1 [II-35]
4,≤ 250,CCCN(c1ncc(C)c(-c2ccc(OC)cc2OC)n1)C(C1CC1)C1CC1 [II-39]
5,≤ 250,CCCN(c1nccc(-c2ccc(OC)cc2C)n1)C(C1CC1)C1CC1 [II-43]
6,≤ 250,"CCCN(c1nc(N)nc(-c2c(Cl)cc(Cl)cc2Cl)n1)C(C1CC1)C1CC1 [IV-2, 2-(2',4',6'-trichlorophenyl)-4-(N-dicyclopropylmethyl-N-propylamino)-6-aminotriazine]"
7,≤ 250,CCCN(c1nc(N)nc(-c2ccc(Cl)cc2Cl)n1)C(C1CC1)C1CC1 [IV-7]
8,≤ 250,"CCCN(c1ncnc(-c2ccc(Cl)cc2Cl)n1)C(C1CC1)C1CC1 [IV-8, 2-(N-dicyclopropylmethyl-N-propylamino)-4-(2',4'-dichlorophenyl)triazine]"

# — patent US5795905A, “CRF receptor antagonists and methods relating thereto” (Neurocrine Biosciences, Inc., priority 1995, dated 1998)
